These results are taken from ChEMBL document CHEMBL1201862, “PubChem BioAssay data set” (2004).

The source made the active and inactive calls. A value given as a limit tells only on which side of the number the result lay.
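Wherever AC50 is given: CYP3A4 tested as one member of a cytochrome P450 panel screen.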

Chain of Cytochrome P450 3A4 (P08684 whole entry): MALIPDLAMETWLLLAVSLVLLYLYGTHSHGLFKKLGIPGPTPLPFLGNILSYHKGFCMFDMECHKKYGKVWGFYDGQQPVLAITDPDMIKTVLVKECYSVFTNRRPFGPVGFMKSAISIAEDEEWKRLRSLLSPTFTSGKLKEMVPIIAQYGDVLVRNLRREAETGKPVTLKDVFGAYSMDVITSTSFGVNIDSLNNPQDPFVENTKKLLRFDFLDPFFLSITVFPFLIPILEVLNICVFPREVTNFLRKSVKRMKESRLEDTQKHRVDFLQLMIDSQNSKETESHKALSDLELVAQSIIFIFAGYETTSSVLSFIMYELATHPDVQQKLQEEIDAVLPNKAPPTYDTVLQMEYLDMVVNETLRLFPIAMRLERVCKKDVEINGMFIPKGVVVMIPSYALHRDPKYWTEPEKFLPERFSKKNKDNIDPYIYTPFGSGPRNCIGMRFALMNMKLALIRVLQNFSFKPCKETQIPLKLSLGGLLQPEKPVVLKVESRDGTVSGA

For one experiment, the target named is T1, Calpain-2 catalytic subunit (Sus scrofa, UniProt P43367).
T1 sequence (P43367 whole entry): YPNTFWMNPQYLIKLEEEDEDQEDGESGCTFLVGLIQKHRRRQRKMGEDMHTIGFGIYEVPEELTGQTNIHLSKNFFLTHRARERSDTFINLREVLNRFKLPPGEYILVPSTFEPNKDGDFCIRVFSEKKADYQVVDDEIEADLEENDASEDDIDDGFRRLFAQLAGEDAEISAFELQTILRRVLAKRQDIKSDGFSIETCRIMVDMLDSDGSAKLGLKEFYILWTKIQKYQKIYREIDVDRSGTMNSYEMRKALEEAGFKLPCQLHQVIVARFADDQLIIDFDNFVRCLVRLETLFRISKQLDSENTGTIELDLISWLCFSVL
Description: m-calpain protease blockers, concentration series – biochemical, fluorogenic peptide substrate, dose response (AID 1420).
Settings: not given
In kind it is functional.
As for `COc1ccc(C(=O)Nc2ccc(S(=O)(=O)NC(C)(C)C)cc2)cc1[N+](=O)[O-]`, the IC50 is on record as 4.14 µM (not active). On to `Cc1ncsc1CCOC(=O)C1C2CC3CC(C2)CC1C3` (stereo not drawn), for which the IC50 is 45.8 µM (not active). `O=C1C[N+]([O-])=Cc2[nH]c3ccccc3c2N1c1ccc([N+](=O)[O-])cc1`: the IC50 is 4.76 µM (not active). Still for that read-out and setting: in the case of `Cc1ccc(-c2csc(/C=C3\SC(C)C(=O)N3CC(=O)Nc3ccccc3F)n2)cc1` (stereo not drawn) it was 10.6 µM (active); in that of `COc1ccc(S(=O)(=O)Oc2cccc(/C=N/NC3=NC(=O)C(CC(=O)O)S3)c2)cc1` (stereo not drawn), > 50 µM (not active).

Test system in another experiment: not listed separately
Description: viability of uninfected HEp-2 cells – cell-based, HTS, cytotoxicity control for RSV inhibitor project, dose response (AID 2410). The settings on record: human respiratory syncytial virus. The format is functional.
In the case of `COc1ccc(C(=O)CCc2ccccc2O)c(OC)c1`, the CC50 is 41.8 µM (active). Turning to `Cc1cccc(OCCNc2cc(N3CCN(CCO)CC3)ccc2[N+](=O)[O-])c1`, the CC50 is 15.6 µM (active). Take `CNc1nccc(-c2ccc(F)cc2)c1C#N`: the CC50 was 47.5 µM (active). Take `COc1ccc(C(=O)Nc2nc3ccc(OC)cc3s2)cc1`: the CC50 is 21.5 µM (active). As for `Oc1cccc(Nc2nc(-c3ccccc3)nc3ccccc23)c1`, the CC50 is 13.3 µM (active). Consider `CCOc1ccc(NC2=NC(=O)CS2)cc1`, for which the CC50 was 24.5 µM (active). As to `Cc1cc(=O)oc2c(C)c(OCC(=O)N3CCN(c4cccc(Cl)c4)CC3)ccc12`, the cytotoxic concentration (CC50) was 29.2 µM (active).

`CC(=O)O[C@@H]1[C@@H](O)[C@@H](O)[C@H](Oc2c(-c3ccc(O)cc3)oc3c(CC=C(C)C)c(O)cc(O)c3c2=O)O[C@H]1C`: the CC50 was 16.1 µM (active). `CCn1c(=O)[nH]c2ccccc2/c1=N/C(=O)c1ccc(F)cc1`: the CC50 is 28 µM (active).

Test system in a further experiment: not listed separately
Description: NIH-3T3 fibroblast cytotoxicity, dose response, cytotoxicity control, cell-based, fluorescence, Alamar Blue, secondary assay (AID 2327).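 Further: NIH-3T3 mouse fibroblasts cultured with fluconazole at 8 µg/mL.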 In kind it is functional.
Settings: not given
In general terms: The colour change of resazurin is a common sign of viable cells or microbes.
For the molecule `CCCOc1cccc(-c2nnc(NC(=O)c3ccco3)s2)c1`, the EC50 was 15.9 µM (active). With `Cc1onc(-c2c(F)cccc2Cl)c1C(=O)NNC(=O)C1CCN(Cc2ccccc2)CC1`, the EC50 was > 150 µM (inconclusive). Turning to `O=C(O)/C=C/c1ccc(S(=O)(=O)Nc2ccc(C(=O)NCC(=O)O)cc2)cc1`, the half-maximal effective concentration (EC50) is > 160 µM (inconclusive). Turning to `COc1cc(/C=C2/C(=O)NN(c3ccc(Cl)cc3)C2=O)cc(OC)c1O`, the EC50 was > 160 µM (inactive).

A further experiment addresses Cytochrome P450 3A4 (Homo sapiens, UniProt P08684).
Settings: not given
Take `CS(=O)(=O)N1CCC[C@@]2(CCN(c3ccccn3)C2)C1`: the AC50 is 20 µM (inconclusive).

Test system in the next experiment: not listed separately
Description: fluconazole-exposed Candida albicans growth modulators – fluorescence, retest, confirmation (AID 2467). The format is functional, cell-based.
Settings: not given
With `CCCOc1cccc(-c2nnc(NC(=O)c3ccco3)s2)c1`, the EC50 was 1.91 µM (active). On the same count and under the same terms, for `Cc1onc(-c2c(F)cccc2Cl)c1C(=O)NNC(=O)C1CCN(Cc2ccccc2)CC1` the value was > 38 µM (not active); for `O=C(O)/C=C/c1ccc(S(=O)(=O)Nc2ccc(C(=O)NCC(=O)O)cc2)cc1`, > 38 µM (not active). On the same count and under the same terms, in the case of `COc1cc(/C=C2/C(=O)NN(c3ccc(Cl)cc3)C2=O)cc(OC)c1O` it was 2.27 µM (inconclusive).

What is called IC50 is the concentration that inhibits the measured activity by half. By CC50 is commonly meant the concentration giving 50% cytotoxicity. The EC50 is the concentration that produces a half-maximal response. A word on the AC50: it is the concentration at which the activity in the assay is half-maximal.
